Assay results reported in patent publication US20260240842A1, “METHODS TO PREVENT THERAPY RESISTANCE IN MELANOMA VIA BLOCKING GENOMIC INSTABILITY” (THE REGENTS OF THE UNIVERSITY OF CALIFORNIA, priority 2022, published 2026).

Test system: p-DNA-PKcs (S2056)
Test: Immunofluorescence of p-DNA-PKcs (S2056) nuclear foci in early on-treatment PDX tumors
Format: in vivo, NSG mice
Details: with or without MEKi; Mel_PDX1, 11 days; FIG. 13F
From the text: FIGS. 13A-13H. In vivo impacts of DNA-PKi when combined with MAPKi. FIGS. 13A and 13B: Long-term follow-up of tumor volumes (13A, BRAFi+MEKi, n=5 tumors; BRAFi+MEKi+DNA-PKi, n=6 tumors) (13B, MEKi, n=6 tumors; MEKi+DNAP-PKi, n=6 tumors) and average mice body weights for 13A and 13B. Related to experiments in FIGS. 7B and 7E, respectively. FIGS. 13C and 13D, Tumor volumes (mean±SEM) of two examples of tumor models treated short-term with vehicle or indicated single versus combined agents. Inhibitors and dosages are identical to those in FIGS. 7C and 7E, respectively. The numbers of tumors and their sizes are shown in the photographs (right) taken at the times of tumor harvest (end points). FIGS. 13E to 13G: Immunofluorescence of p-ERK (13E), p-DNA-PKcs (S2056) (13F), or γH2AX (13G) levels in Mel_PDX1 tumor model, treated with vehicle or indicated single versus combined agents for 11 days (shown in 13C). DAPI, nuclear stain. Scale bar, 50 μm (13E) and 20 μm (13F and 13G). Representative images shown for two tumors analyzed per group. Quantification of p-DNA-PKcs signals obtained by taking the average of positively stained foci per nucleus (13F, representative of 4 fields). Quantification of γH2AX signals analyzed either by percentage of cells with γH2AX foci or percentage of cells with greater than 5 γH2AX foci (13G, representative of 4 fields). […]

O=c1cc(N2CCOCC2)oc2c1ccc1ccccc12 [NU7026]
nuclear p-DNA-PKCS foci: suppressed nuclear p-DNA-PKCS foci
